# Source: US7846928B2, “Substituted pyrazolopyridines and salts thereof, pharmaceutical compositions comprising same, methods of preparing same and uses of same” (Bayer Schering Pharma AG, priority 2006, dated 2010)
# Experiments:
# [1] = biological target: T1, human insuline receptor (Ins-R) kinase domain (Homo sapiens, UniProt P06213); test: InsR HTRF assay (assay 4); type: biochemical; settings: IC50 assay 4/IC50 assay 2
# T1 construct: GST-tagged recombinant kinase domain of the human insuline receptor; GST; purchased ProQinase, Freiburg, Germany; host or cells: SF-9 cells
# Experimental: Inhibitory activity of compounds against the kinase activity of the insulin receptor was quantified employing the Ins-R HTRF assay as described in the following paragraphs.
# GST-tagged recombinant kinase domain of the human insuline receptor (Ins-R, purchase from ProQinase, Freiburg, Germany) expressed in SF-9 cells was used as kinase. As substrate for the kinase reaction biotinylated poly-(Glu,Tyr) (Cis biointernational, France) was used.
# Ins-R was incubated for 20 min at 22° C. in the presence of different concentrations of test compounds in 5 μl assay buffer [50 mM Hepes/NaOH pH 7, 15 mM MnCl2, 1 mM dithiothreitol, 0.1 μM sodium ortho-vanadate, 0.015% (v/v) PEG20000, 10 μM adenosine-tri-phosphate (ATP), 0.3 μg/ml substrate, 1% (v/v) dimethylsulfoxide]. The concentration of Ins-R was adjusted depending of the activity of the enzyme lot and was chosen appropriate to have the assay in the linear range, typical concentrations were in the range of 10 pg/μl. The reaction was stopped by the addition of 5 μl of a solution of HTRF detection reagents (0.1 μM streptavidine-XLent and 1 nM PT66-Eu-Chelate, an europium-chelate labelled anti-phosphotyrosine antibody from Perkin Elmer) in an aqueous EDTA-solution (80 mM EDTA, 0.2% (w/v) bovine serum albumin in 50 mM HEPES/NaOH pH 7.0).
# (§1) The resulting mixture was incubated 1 h at 22° C. to allow the binding of the biotinylated phosphorylated peptide to the streptavidine-XLent and the PT66-Eu-Chelate. Subsequently the amount of phosphorylated substrate was evaluated by measurement of the resonance energy transfer from the PT66-Eu-Chelate to the streptavidine-XLent. Therefore, the fluorescence emissions at 620 nm and 665 nm after excitation at 350 nm was measured in a HTRF reader, e.g. a Rubystar (BMG Labtechnologies, Offenburg, Germany) or a Viewlux (Perkin-Elmer). The ratio of the emissions at 665 nm and at […] was taken as the measure for the amount of phosphorylated substrate. The data were normalised (enzyme reaction without inhibitor=0% inhibition, all other assay components but no enzyme=100% inhibition) and IC50 values were calculated by a 4 parameter fit using an inhouse software.
# [2] = biological target: Tie2 (Homo sapiens, UniProt Q02763); test: Tie-2-Kinase HTRF-Assay without kinase preactivation (assay 2); type: biochemical; parameters: fusion protein of GST and the intracellular domains of Tie-2; GST; made in house; host or cells: insect cells (Hi-5); settings: GST-Tie-2 without preactivation, 10 μM ATP; pIC50 = -log IC50 molar
# Source text: Tie2-inhibitory activity of compounds of the present invention was quantified employing two Tie2 HTRF assay as described in the following paragraphs.
# A recombinant fusion protein of GST and the intracellular domains of Tie-2, expressed in insect cells (Hi-5) and purified by Glutathion-Sepharose affinity chromatography was used as kinase. Alternatively, commercially available GST-Tie2-fusion protein (Upstate Biotechnology, Dundee, Scotland) can be used As substrate for the kinase reaction the biotinylated peptide biotin-Ahx-EPKDDAYPLYSDFG (C-terminus in amid form) was used which can be purchased e.g. from the company Biosynthan GmbH (Berlin-Buch, Germany). Detection of phosphorylated product is achieved specifically by a trimeric detection complex consisting of the phosphorylated substrate, streptavidin-XLent (SA-XLent) which binds to biotin, and Europium Cryptate-labeled anti-phosphotyrosine antibody PT66 which binds to phosphorylated tyrosine.
# Tie-2 (3.5 ng/measurement point) was incubated for 60 min at 22° C. in the presence of 10 μM adenosine-tri-phosphate (ATP) and 1 μM substrate peptide (biotin-Ahx-EPKDDAYPLYSDFG-NH2) with different concentrations of test compounds (0 μM and concentrations in the range 0.001-20 μM) in 5 μl assay buffer [50 mM Hepes/NaOH pH 7, 10 mM MgCl2, 0.5 mM MnCl2, 1.0 mM dithiothreitol, 0.01% NP40, protease inhibitor mixture (“Complete w/o EDTA” from Roche, 1 tablet per 2.5 ml), 1% (v/v) dimethylsulfoxide]. The reaction was stopped by the addition of 5 μl of an aqueous buffer (25 mM Hepes/NaOH pH 7.5, 0.28% (w/v) bovine serum albumin) containing EDTA (90 mM) and the HTRF (Homogeneous Time Resolved Fluorescence) detection reagents streptavidine-XLent (0.2 μM, from Cis Biointernational, Marcoule, France) and PT66-Eu-Chelate (0.3 ng/μl; a europium-chelate labelled anti-phospho-tyrosine antibody from Perkin Elmer).
# as §1, with “substrate peptide” for “substrate”, “substrate peptide.” for “substrate.”
# T1 sequence (P06213 1023-1298 limits assumed): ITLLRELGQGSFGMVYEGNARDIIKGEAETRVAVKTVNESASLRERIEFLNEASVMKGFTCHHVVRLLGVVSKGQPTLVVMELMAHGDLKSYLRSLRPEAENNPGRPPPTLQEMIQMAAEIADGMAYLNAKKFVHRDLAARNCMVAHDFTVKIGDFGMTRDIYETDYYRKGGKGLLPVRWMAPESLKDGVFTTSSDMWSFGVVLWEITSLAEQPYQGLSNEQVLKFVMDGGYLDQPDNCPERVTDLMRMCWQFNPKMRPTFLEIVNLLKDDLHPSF
# Chain of Tie2 (Q02763 770-1124 limits assumed): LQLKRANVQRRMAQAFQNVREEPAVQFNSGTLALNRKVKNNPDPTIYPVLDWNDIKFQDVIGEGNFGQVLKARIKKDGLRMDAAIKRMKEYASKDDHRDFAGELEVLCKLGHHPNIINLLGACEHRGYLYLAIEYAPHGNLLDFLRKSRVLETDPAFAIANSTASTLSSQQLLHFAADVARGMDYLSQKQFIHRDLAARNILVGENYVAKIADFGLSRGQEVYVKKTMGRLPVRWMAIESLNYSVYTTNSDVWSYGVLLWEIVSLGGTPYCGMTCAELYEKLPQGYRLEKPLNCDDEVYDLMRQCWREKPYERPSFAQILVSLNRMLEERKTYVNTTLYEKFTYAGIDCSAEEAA
Compound,Selectivity vs. InsR [1] [fold],IC50 [2] [nM]
"CC(C)c1cc(-c2ccc(NC(=O)Nc3cccc(C(F)(F)F)c3)cc2)c2cnn(C)c2n1 [1.3, 1-[4-(6-Isopropyl-1-methyl-1H-pyrazolo[3,4-b]pyridin-4-yl)-phenyl]-3-(3-trifluoromethyl-phenyl)-urea]",>20,< 501
"CN1CCN(Cc2ccc(NC(=O)Nc3ccc(-c4cc(C(C)(C)C)nc5[nH]ncc45)cc3)cc2C(F)(F)F)CC1 [1.15, 1-[4-(6-tert-Butyl-1H-pyrazolo[3,4-b]pyridin-4-yl)-phenyl]-3-[4-(4-methyl-piperazin-1-ylmethyl)-3-trifluoromethyl-phenyl]-urea]",>20,< 501
"Cn1ncc2c(-c3ccc(NC(=O)Nc4cc(C(F)(F)F)ccc4F)cc3)ccnc21 [1.8, 1-(2-Fluoro-5-trifluoromethyl-phenyl)-3-[4-(1-methyl-1H-pyrazolo[3,4-b]-pyridin-4-yl)-phenyl]-urea]",>20,< 501
"Cn1ncc2c(-c3ccc(NC(=O)Nc4cccc(C(F)(F)F)c4)cc3)ccnc21 [1.4, 1-[4-(1-Methyl-1H-pyrazolo[3,4-b]pyridin-4-yl)-phenyl]-3-(3-trifluoromethyl-phenyl)-urea]",>20,< 501
"Cc1cccc(NC(=O)Nc2ccc(-c3cc(C(C)(C)C)nc4[nH]ncc34)cc2)c1 [1.11, 1-[4-(6-tert-Butyl-1H-pyrazolo[3,4-b]pyridin-4-yl)-phenyl]-3-m-tolyl-urea]",>20,501 to 1000
"CCc1cccc(NC(=O)Nc2ccc(-c3cc(C(C)(C)C)nc4[nH]ncc34)cc2)c1 [1.1, 1-[4-(6-tert-Butyl-1H-pyrazolo[3,4-b]pyridin-4-yl)-phenyl]-3-(3-ethylphenyl)-urea]",>20,< 501
"CN1CCN(Cc2ccc(NC(=O)Nc3ccc(-c4ccnc5[nH]ncc45)cc3)cc2C(F)(F)F)CC1 [1.33, 1-[4-(4-Methyl-piperazin-1-yl-methyl)-3-trifluoromethyl-phenyl]-3-[4-(1H-pyrazolo[3,4-b]pyridin-4-yl)-phenyl]-urea]",>20,< 501
"CN(C)C(=O)C1(c2cc(-c3ccc(NC(=O)Nc4cccc(C(F)(F)F)c4)cc3)c3cnn(C)c3n2)CC1 [1.26, 1-(1-Methyl-4-{4-[3-(3-trifluoromethyl-phenyl)-ureido]-phenyl}-1H-pyrazolo[3,4-b]pyridin-6-yl)-cyclopropane-carboxylic acid dimethylamide]",>20,< 501
"Cc1ccc(F)c(NC(=O)Nc2ccc(-c3cc(C4(C(=O)N(C)C)CC4)nc4c3cnn4C)cc2)c1 [1.29, 1-(4-{4-[3-(2-Fluoro-5-methyl-phenyl)-ureido]-phenyl}-1-methyl-1H-pyrazolo[3,4-b]pyridin-6-yl)-cyclopropane-carboxylic acid dimethylamide]",>20,< 501
"O=C(Nc1ccc(-c2ccnc3[nH]ncc23)cc1)Nc1cccc(C(F)(F)F)c1 [1.20, 1-[4-(1H-Pyrazolo[3,4-b]pyridin-4-yl)-phenyl]-3-(3-trifluoromethyl-phenyl)-urea]",>20,< 501
"Cc1ccc(F)c(NC(=O)Nc2ccc(-c3ccnc4c3cnn4C)cc2)c1 [1.7, 1-(2-Fluoro-5-methyl-phenyl)-3-[4-(1-methyl-1H-pyrazolo[3,4-b]pyridin-4-yl)-phenyl]-urea]",>20,< 501
"CC(C)c1cc(-c2ccc(NC(=O)Nc3cccc(C(F)(F)F)c3)cc2)c2cn[nH]c2n1 [1.2, 1-[4-(6-Isopropyl-1H-pyrazolo[3,4-b]pyridin-4-yl)-phenyl]-3-(3-trifluoromethyl-phenyl)-urea]",>20,< 501
"CN1CCN(Cc2ccc(NC(=O)Nc3ccc(-c4ccnc5c4cnn5C)cc3)cc2C(F)(F)F)CC1 [1.24, 1-[4-(4-Methyl-piperazin-1-ylmethyl)-3-trifluoromethyl-phenyl]-3-[4-(1-methyl-1H-pyrazolo[3,4-b]pyridin-4-yl)-phenyl]-urea]",>20,< 501
"Cc1cc(-c2ccc(NC(=O)Nc3cccc(C(F)(F)F)c3)cc2)c2cn[nH]c2n1 [1.18, 1-[4-(6-Methyl-1H-pyrazolo[3,4-b]pyridin-4-yl)-phenyl]-3-(3-trifluoromethyl-phenyl)-urea]",>20,< 501
"Cc1ccc(F)c(NC(=O)Nc2ccc(-c3ccnc4[nH]ncc34)cc2)c1 [1.22, 1-(2-Fluoro-5-methyl-phenyl)-3-[4-(1H-pyrazolo[3,4-b]pyridin-4-yl)-phenyl]-urea]",>20,501 to 1000

# Results, then the compound that gave them:
Selectivity vs. InsR [1] [fold],IC50 [2] [nM],Compound
>20,< 501,"CCc1cccc(NC(=O)Nc2ccc(-c3cc(CN4CCOCC4)nc4c3cnn4C)cc2)c1 [3.4, 1-(3-Ethyl-phenyl)-3-[4-(1-methyl-6-morpholin-4-ylmethyl-1H-pyrazolo[3,4-b]pyridin-4-yl)-phenyl]-urea]"
>20,< 501,"Cc1cc(-c2ccc(NC(=O)Nc3cc(F)cc(C(F)(F)F)c3)cc2)c2cnn(C)c2n1 [2.4, 1-[4-(1,6-Dimethyl-1H-pyrazolo[3,4-b]pyridin-4-yl)-phenyl]-3-(3-fluoro-5-trifluoromethyl-phenyl)-urea]"
>20,< 501,"Cn1ncc2c(-c3ccc(NC(=O)Nc4cccc(C(F)(F)F)c4)cc3)cc(CN3CCOCC3)nc21 [3.2, 1-[4-(1-Methyl-6-morpholin-4-ylmethyl-1H-pyrazolo[3,4-b]pyridin-4-yl)-phenyl]-3-(3-trifluoromethyl-phenyl)-urea]"
>20,< 501,"COc1ccc(C(F)(F)F)cc1NC(=O)Nc1ccc(-c2cc(C)nc3c2cnn3C)cc1 [2.7, 1-[4-(1,6-Dimethyl-1H-pyrazolo[3,4-b]pyridin-4-yl)-phenyl]-3-(2-methoxy-5-trifluoromethyl-phenyl)-urea]"
>20,< 501,"Cc1ccc(F)c(NC(=O)Nc2ccc(-c3cc(CN4CCOCC4)nc4c3cnn4C)cc2)c1 [3.5, 1-(2-Fluoro-5-methyl-phenyl)-3-[4-(1-methyl-6-morpholin-4-ylmethyl-1H-pyrazolo[3,4-b]pyridin-4-yl)-phenyl]-urea]"
